{"source": "patent US20260053935A1", "about": "“METHODS AND COMPOSITIONS FOR TREATING CANCER WITH CANCER-BINDING ADJUVANTS” (THE UNIVERSITY OF CHICAGO, priority 2022, published 2026)", "key": {"[1]": {"test_system": "pro-inflammatory cytokines", "test": "Serum cytokine analysis in MC38 tumor-bearing mice", "assay_type": "in vivo", "conditions": "i.t. on a TLR7 equimolar basis; 6 hours after injection; vs PBS or vehicle control", "experimental": "As a comparison, other mice were injected with TLR7/8 agonist telratolimod (3M-052, MedChemExpress, cat. no. HY-109104) in 10% DMSO, 40% PEG300 (Sigma Aldrich, cat. no. 8.07484), and 5% Tween-80 in PBS (Sigma Aldrich, cat. no. P8074) (with additional vehicle control mice). Six hours after injection, plasma was collected via submandibular bleed and analyzed for pro-inflammatory cytokines using LEGENDplex Mouse Inflammation Panel Assay (BioLegend, cat. no. 740446)."}, "RAW 264.7 macrophages": {"test_system": "RAW 264.7 macrophages", "test": "Cytotoxicity to RAW 264.7 macrophages (Zombie Aqua viability dye)", "assay_type": "cell-based", "conditions": "24 hours after treatment; vs media alone"}, "C1498 cells": {"test_system": "C1498 cells", "test": "In vitro cancer cell binding of dye-labeled polymer to AML cells", "excerpt": "Flow cytometric analysis of dye labeled PDS-containing polymers binding to C1498 cells in a (A) polymer dose-dependent manner.\nThey also investigated the effect of cytarabine pre-treatment on polymer binding, both in a dose and time dependent manner."}, "[2]": {"test": "In vivo polymer biodistribution (tissue homogenate fluorescence)", "conditions": "cytarabine one day before polymer i.v.", "excerpt": "To achieve this, they inoculated normal B6 mice with C1498. After one day, one group of mice received a dose of cytarabine. […] Eight hours after this injection, mice were sacrificed, and tissues were harvested for homogenization and subsequent fluorescence quantification using a microplate reader. Fluorescence values were normalized per mg of tissue."}}, "data": [{"smiles": "CCCCCCCCCCCCCCCCCC(=O)NCCCCOn1c(CCCC)nc2c(N)nc3ccccc3c21", "note": "[3M-052]", "values": [{"measurement": "systemic inflammatory cytokines (IFN-γ, IL-6, MCP-1, IFN-β, IL-27)", "setting": "[1]", "result": "produced significant upregulation"}]}, {"smiles": "CCOCc1nc2c(N)nc3ccccc3c2n1CC(C)(C)O", "note": "[R848]", "values": [{"measurement": "live cells as a percent of total cells", "setting": "RAW 264.7 macrophages", "result": "no significant change from the media alone control wells"}]}, {"smiles": "Nc1ccn([C@@H]2O[C@H](CO)[C@@H](O)[C@@H]2O)c(=O)n1", "note": "[cytarabine]", "values": [{"measurement": "efficiency of polymer binding to C1498 cells after cytarabine pre-treatment (duration)", "setting": "C1498 cells; cytarabine given too far from polymer treatment", "result": "decreases binding efficiency of PDS-containing polymers"}, {"measurement": "efficiency of polymer binding to C1498 cells after cytarabine pre-treatment (dose)", "setting": "C1498 cells; cytarabine pre-treatment for 4 hours", "result": "increased the efficiency of polymer binding in a dose-dependent manner"}, {"measurement": "effect of cytarabine pre-treatment on tissue biodistribution of polymer", "setting": "[2]", "result": "does not significantly alter the tissue biodistribution of polymer"}]}]}
